pIC50: −log10 of the molar value. Where two headings read alike, the source gives them in different places.
What was measured:
Format in all cases: biochemical
human PDE4D3 = human PDE4D3 (Homo sapiens (Human), UniProt Q08499); assay: PDE4D3 Scintillation Proximity Assay (SPA), inhibition of enzyme activity; settings: read-out: Human PDE4D FL
Procedure, shortened: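 His-tagged human PDE4D3 (aa 50–672), expressed in insect cells, hydrolysed 1 μM cAMP (3H tracer plus cold) for 30 min at 25° C in 50 mM Tris pH 7.5, 1.3 mM MgCl2 and 0.01% Brij. Enzyme level was set for ~20% conversion. Product was read by yttrium silicate SPA beads after 8 h settling.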

Human PDE4A3 = Human PDE4A3 (Homo sapiens (Human), UniProt P27815); assay: PDE4A3 Scintillation Proximity Assay (SPA), inhibition of enzyme activity; settings: read-out: Human PDE4A FL
Chain of Human PDE4A3 (P27815 other isoform, or with tags, fused parts or gaps): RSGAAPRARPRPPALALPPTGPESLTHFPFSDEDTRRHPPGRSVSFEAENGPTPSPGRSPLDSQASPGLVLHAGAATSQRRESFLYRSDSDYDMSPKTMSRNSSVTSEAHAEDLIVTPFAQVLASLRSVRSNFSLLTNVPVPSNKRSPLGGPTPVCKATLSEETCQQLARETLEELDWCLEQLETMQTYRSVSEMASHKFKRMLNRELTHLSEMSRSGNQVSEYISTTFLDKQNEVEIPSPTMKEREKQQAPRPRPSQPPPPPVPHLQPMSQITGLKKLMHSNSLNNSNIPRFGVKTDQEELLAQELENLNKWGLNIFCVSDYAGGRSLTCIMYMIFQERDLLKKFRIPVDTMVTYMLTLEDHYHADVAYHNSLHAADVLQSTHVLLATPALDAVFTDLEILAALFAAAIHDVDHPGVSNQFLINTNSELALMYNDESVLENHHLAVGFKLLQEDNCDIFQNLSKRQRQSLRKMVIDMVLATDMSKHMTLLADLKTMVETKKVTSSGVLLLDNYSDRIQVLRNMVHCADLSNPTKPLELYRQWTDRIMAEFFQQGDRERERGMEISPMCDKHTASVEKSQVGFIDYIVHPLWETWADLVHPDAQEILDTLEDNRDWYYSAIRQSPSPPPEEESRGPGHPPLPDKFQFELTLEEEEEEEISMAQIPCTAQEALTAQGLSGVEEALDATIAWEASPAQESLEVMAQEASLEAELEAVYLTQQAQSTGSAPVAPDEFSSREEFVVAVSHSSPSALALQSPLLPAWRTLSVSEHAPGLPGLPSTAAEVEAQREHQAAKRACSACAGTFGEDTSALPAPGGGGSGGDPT
Procedure, shortened: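 Recombinant human PDE4A3 expressed in insect cells, purified via Ni-NTA, anti-FLAG and size exclusion. SPA run 30 min at 25 °C in 50 mM Tris pH 7.5, 1.3 mM MgCl2, 0.01% Brij with 1 μM cAMP (20 nM 3H-cAMP), […], ~20% substrate conversion; stopped with yttrium silicate beads.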

Human PDE4C1 = Human PDE4C1 (Homo sapiens (Human), UniProt Q08493); assay: PDE4C1 Scintillation Proximity Assay (SPA), inhibition of enzyme activity; settings: read-out: Human PDE4C FL
Chain of Human PDE4C1 (Q08493 2-712): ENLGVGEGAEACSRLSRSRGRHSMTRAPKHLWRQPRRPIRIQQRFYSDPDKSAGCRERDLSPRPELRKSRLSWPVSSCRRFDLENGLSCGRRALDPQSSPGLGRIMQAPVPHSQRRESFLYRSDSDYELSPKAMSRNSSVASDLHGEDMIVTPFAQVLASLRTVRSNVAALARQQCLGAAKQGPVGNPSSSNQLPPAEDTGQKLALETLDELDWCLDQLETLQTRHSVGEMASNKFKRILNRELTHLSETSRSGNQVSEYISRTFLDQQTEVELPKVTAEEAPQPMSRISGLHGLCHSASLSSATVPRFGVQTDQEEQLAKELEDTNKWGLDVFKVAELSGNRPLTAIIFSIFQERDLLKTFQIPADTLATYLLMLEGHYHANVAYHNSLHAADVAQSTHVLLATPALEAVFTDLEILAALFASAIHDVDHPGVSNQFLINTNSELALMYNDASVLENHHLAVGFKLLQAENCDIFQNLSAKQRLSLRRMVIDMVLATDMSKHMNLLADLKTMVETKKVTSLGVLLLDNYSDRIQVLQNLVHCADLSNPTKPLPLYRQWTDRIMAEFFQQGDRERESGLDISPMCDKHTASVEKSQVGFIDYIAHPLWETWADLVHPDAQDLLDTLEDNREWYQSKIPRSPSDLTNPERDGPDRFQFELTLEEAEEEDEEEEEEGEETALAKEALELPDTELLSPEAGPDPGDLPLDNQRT
Procedure, shortened: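 Recombinant insect-cell-expressed human PDE4C1 […] in 50 mM Tris pH 7.5, 1.3 mM MgCl2, 0.01% Brij with 1 μM cAMP (3H-cAMP tracer), ~20% substrate conversion, inhibitor concentration range. Incubated 30 min at 25° C; stopped with yttrium silicate SPA beads, read by scintillation after 8 h settling.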

Human PDE4B1 = Human PDE4B1 (Homo sapiens (Human), UniProt Q07343, S133E/S654A/S659A/S661A); assay: PDE4B1 Scintillation Proximity Assay (SPA), inhibition of enzyme activity; settings: read-out: Human PDE4B FL
Chain of Human PDE4B1 (Q07343 122-736 S133E/S654A/S659A/S661A): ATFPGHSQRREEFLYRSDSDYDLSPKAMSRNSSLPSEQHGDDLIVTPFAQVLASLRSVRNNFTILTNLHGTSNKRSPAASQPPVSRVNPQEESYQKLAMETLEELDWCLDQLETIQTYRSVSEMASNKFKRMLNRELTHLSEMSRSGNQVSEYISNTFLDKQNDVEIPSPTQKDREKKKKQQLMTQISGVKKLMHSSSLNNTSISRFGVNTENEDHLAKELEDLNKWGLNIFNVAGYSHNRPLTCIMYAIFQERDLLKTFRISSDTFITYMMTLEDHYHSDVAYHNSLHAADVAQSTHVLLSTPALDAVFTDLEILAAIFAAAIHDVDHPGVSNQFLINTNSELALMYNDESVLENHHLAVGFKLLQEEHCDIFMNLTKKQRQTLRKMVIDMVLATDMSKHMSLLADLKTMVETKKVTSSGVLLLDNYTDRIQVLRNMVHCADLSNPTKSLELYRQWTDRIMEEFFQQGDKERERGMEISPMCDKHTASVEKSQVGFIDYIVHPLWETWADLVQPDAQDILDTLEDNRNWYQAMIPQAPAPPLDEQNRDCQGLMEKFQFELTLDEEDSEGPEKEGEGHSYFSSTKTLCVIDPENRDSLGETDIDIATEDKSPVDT
Procedure, shortened: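 His-tagged enzyme from baculovirus-infected insect cells, Ni-NTA purified. SPA with 1 μM cAMP (20 nM 3H-cAMP tracer) in 50 mM Tris pH 7.5, 1.3 mM MgCl2, 0.01% Brij, […] PDE4B enzyme for ~20% substrate conversion; 30 min at 25 °C, stopped with yttrium silicate beads, read after 8 h settling.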

[1] = Table 9, geometric mean of 2-9 determinations unless otherwise indicated
[2] = Table 10, geometric mean of 2-9 determinations unless otherwise indicated

Chain of human PDE4D3 (Q08499 186-808): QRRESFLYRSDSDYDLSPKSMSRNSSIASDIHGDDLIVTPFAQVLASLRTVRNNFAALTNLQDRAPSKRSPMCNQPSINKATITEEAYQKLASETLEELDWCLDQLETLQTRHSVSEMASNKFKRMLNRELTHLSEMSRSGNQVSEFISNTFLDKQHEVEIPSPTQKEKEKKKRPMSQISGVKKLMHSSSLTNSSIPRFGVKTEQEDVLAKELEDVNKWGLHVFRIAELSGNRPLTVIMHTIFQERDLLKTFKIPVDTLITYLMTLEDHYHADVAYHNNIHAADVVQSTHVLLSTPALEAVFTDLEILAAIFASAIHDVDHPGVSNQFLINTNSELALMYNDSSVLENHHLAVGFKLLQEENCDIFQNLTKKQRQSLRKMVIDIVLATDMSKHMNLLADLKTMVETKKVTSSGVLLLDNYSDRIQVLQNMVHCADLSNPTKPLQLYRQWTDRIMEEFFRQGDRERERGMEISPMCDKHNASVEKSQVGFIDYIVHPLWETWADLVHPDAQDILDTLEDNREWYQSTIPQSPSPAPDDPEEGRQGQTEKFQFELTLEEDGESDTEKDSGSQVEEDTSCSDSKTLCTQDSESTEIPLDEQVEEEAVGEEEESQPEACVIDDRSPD

pIC50 (human PDE4D3; [1])	pIC50 (Human PDE4A3; [1])	pIC50 (Human PDE4C1; [1])	pIC50 (Human PDE4B1; [1])	pIC50 (human PDE4D3; [2])	pIC50 (Human PDE4A3; [2])	pIC50 (Human PDE4C1; [2])	pIC50 (Human PDE4B1; [2])	Structure (SMILES)
7.42	8.46	7.97	8.42	–	–	–	–	Cc1cc(N2CCn3c(c(-c4ccc(Cl)cc4)c4ncccc43)C2=O)no1 [Example 57, 10-(4-Chlorophenyl)-8-(5-methyl-1,2-oxazol-3-yl)-7,8-dihydropyrido[2′,3′:4,5]pyrrolo[1,2-a]pyrazin-9(6H)-one]
6.20	7.90	7.20	7.62	–	–	–	–	O=C1c2c(-c3ccc4ncnn4c3)c3ncccc3n2CCN1C1CC1 [Example 58, 8-Cyclopropyl-10-([1,2,4]triazolo[1,5-a]pyridin-6-yl)-7,8-dihydropyrido[2′,3′:4,5]pyrrolo[1,2-a]pyrazin-9(6H)-one]
6.54	7.90	7.06	8.01	–	–	–	–	COc1c(F)cc(-c2c3n(c4nccnc24)CCN(C2CC2)C3=O)cc1F [Example 59, 8-Cyclopropyl-10-(3,5-difluoro-4-methoxyphenyl)-7,8-dihydropyrrolo[1,2-a:4,5-b′]dipyrazin-9(6H)-one]
6.40	7.93	7.00	7.95	–	–	–	–	Cc1ccc(C#N)cc1-c1c2n(c3cccnc13)CCN(C1CC1)C2=O [Example 60, 3-(8-Cyclopropyl-9-oxo-6,7,8,9-tetrahydropyrido[2′,3′:4,5]pyrrolo[1,2-a]pyrazin-10-yl)-4-methylbenzonitrile]
5.79	7.45	7.22	7.41	–	–	–	–	N#Cc1ccc(-c2c3n(c4cccnc24)CC2CCCN2C3=O)cc1 (stereo not drawn) [Example 61, 4-(11-Oxo-6a,7,8,9-tetrahydro-6H,11H-pyrido[2′,3′:4,5]pyrrolo[1,2-a]pyrrolo[1,2-d]pyrazin-12-yl)benzonitrile]
5.87	6.66	6.14	7.49	–	–	–	–	O=C1c2c(-c3ccc(Cl)cc3)c3ncccc3n2CC2COCCN12 (stereo not drawn) [Example 63, 13-(4-Chlorophenyl)-6a,7,9,10-tetrahydro-6H,12H-pyrido[2″,3″:4′,5′]pyrrolo[1′,2′:4,5]pyrazino[2,1-c][1,4]oxazin-12-one]
6.34	8.45	7.43	7.94	–	–	–	–	O=C1c2c(-c3cnc4ccoc4c3)c3ncccc3n2CCN1C1CC1 [Example 64, 8-Cyclopropyl-10-(furo[3,2-b]pyridin-6-yl)-7,8-dihydropyrido[2′,3′:4,5]pyrrolo[1,2-a]pyrazin-9(6H)-one]
6.32	8.25	7.86	8.17	–	–	–	–	Cc1ccc(-c2c3n(c4cccnc24)CCN(C2CC2)C3=O)c(C)c1 [Example 65, 8-Cyclopropyl-10-(2,4-dimethylphenyl)-7,8-dihydropyrido[2′,3′:4,5]pyrrolo[1,2-a]pyrazin-9(6H)-one]
6.34	8.27	7.78	8.16	–	–	–	–	Cc1ccc(-c2c3ncccc3n3ccn(C4CC4)c(=O)c23)c(C)c1 [Example 66, 8-Cyclopropyl-10-(2,4-dimethyl-phenyl)pyrido[2′,3′:4,5]pyrrolo[1,2-a]pyrazin-9(8H)-one]
6.97	8.55	8.07	8.57	–	–	–	–	N#Cc1ccc(-c2c3ncccc3n3ccn(C4CC4)c(=O)c23)cc1 [Example 70, 4-(8-Cyclopropyl-9-oxo-8,9-dihydropyrido[2′,3′:4,5]pyrrolo[1,2-a]pyrazin-10-yl)benzonitrile]
5.97	7.56	7.28	7.36	–	–	–	–	N#Cc1ccc(-c2c3n(c4scnc24)CCN(C2CC2)C3=O)cn1 [Example 71, 5-(7-Cyclopropyl-8-oxo-5,6,7,8-tetrahydro[1,3]thiazolo[4′,5′:4,5]pyrrolo[1,2-a]pyrazin-9-yl)pyridine-2-carbonitrile]
7.04	8.45	7.82	8.36	–	–	–	–	N#Cc1ccc(-c2c3n(c4scnc24)CCN(C2CC2)C3=O)cc1F [Example 72, 4-(7-Cyclopropyl-8-oxo-5,6,7,8-tetrahydro[1,3]thiazolo[4′,5′:4,5]pyrrolo[1,2-a]pyrazin-9-yl)-2-fluorobenzonitrile]
6.15	8.12	6.91	7.60	–	–	–	–	Cc1cc(Cl)ccc1-c1c2n(c3cccnc13)CCN(c1ncccn1)C2=O [Example 73, 10-(4-Chloro-2-methylphenyl)-8-(pyrimidin-2-yl)-7,8-dihydropyrido[2′,3′:4,5]pyrrolo[1,2-a]pyrazin-9(6H)-one]
6.18	7.72	7.28	7.57	–	–	–	–	O=C1c2c(-c3ccc(Cl)c(F)c3)c3ncccc3n2CCN1c1ncccn1 [Example 74, 10-(4-Chloro-3-fluorophenyl)-8-(pyrimidin-2-yl)-7,8-dihydropyrido[2′,3′:4,5]pyrrolo[1,2-a]pyrazin-9(6H)-one]
6.54	8.90	7.93	8.40	–	–	–	–	O=C1c2c(-c3ccc(Cl)cc3)c3c(n2CCN1C1CC1)CCCO3 [Example 75, 10-(4-Chlorophenyl)-8-cyclopropyl-3,4,7,8-tetrahydro-2H-pyrano[2′,3′:4,5]pyrrolo[1,2-a]pyrazin-9(6H)-one]
7.67	> 9.51	8.70	> 9.26	–	–	–	–	O=C1c2c(-c3ccc(Cl)c(F)c3)c3c(n2CCN1C1CC1)CCCO3 [Example 76, 10-(4-Chloro-3-fluorophenyl)-8-cyclopropyl-3,4,7,8-tetrahydro-2H-pyrano[2′,3′:4,5]pyrrolo[1,2-a]pyrazin-9(6H)-one]
7.25	9.00	8.23	9.08	–	–	–	–	O=C1c2c(-c3cc(F)c(Cl)cc3F)c3c(n2CCN1C1CC1)CCCO3 [Example 77, 10-(4-Chloro-2,5-difluorophenyl)-8-cyclopropyl-3,4,7,8-tetrahydro-2H-pyrano[2′,3′:4,5]pyrrolo[1,2-a]pyrazin-9(6H)-one]
–	–	–	–	6.92	6.98	6.76	6.67	CS(=O)(=O)N1CCn2c(c(-c3ccc(Cl)cc3)c3ncccc32)C1=O [Example 79, 10-(4-Chlorophenyl)-8-(methylsulfonyl)-7,8-dihydropyrido[2′,3′:4,5]pyrrolo[1,2-a]pyrazin-9(6H)-one]
–	–	–	–	7.37	7.36	6.97	7.18	CCNC(=O)N1CCn2c(c(-c3ccc(Cl)cc3)c3ncccc32)C1=O [Example 80, 10-(4-Chlorophenyl)-N-ethyl-9-oxo-6,7-dihydropyrido[2′,3′:4,5]pyrrolo[1,2-a]pyrazine-8(9H)-carboxamide]
–	–	–	–	< 4.52	< 4.52	4.53	< 4.52	Cc1nccc(-c2c3n(c4cccnc24)CCN(C2CC2)C3=O)n1 [Example 81, 8-Cyclopropyl-10-(2-methylpyrimidin-4-yl)-7,8-dihydropyrido [2′,3′:4,5] pyrrolo[1,2-a]pyrazin-9(6H)-one]
–	–	–	–	< 4.52	4.95	5.32	4.73	Cc1csc(-c2c3n(c4cccnc24)CCN(C2CC2)C3=O)n1 [Example 82, 8-Cyclopropyl-10-(4-methylthiazol-2-yl)-7,8-dihydropyrido[2′,3′:4,5]pyrrolo[1,2-a]pyrazin-9(6H)-one]
–	–	–	–	< 4.52	4.81	< 4.52	< 4.59	Cc1cccnc1-c1c2n(c3cccnc13)CCN(C1CC1)C2=O [Example 84, 8-Cyclopropyl-10-(3-methylpyridin-2-yl)-7,8-dihydropyrido[2′,3′:4,5]pyrrolo[1,2-a]pyrazin-9(6H)-one]
–	–	–	–	6.14	6.60	5.30	6.36	CN(C)S(=O)(=O)c1cccc(-c2c3n(c4cccnc24)CCN(C2CC2)C3=O)c1 [Example 85, 3-(8-Cyclopropyl-9-oxo-6,7,8,9-tetrahydropyrido[2′,3′:4,5]pyrrolo[1,2-a]pyrazin-10-yl)-N,N-dimethylbenzenesulfonamide]
–	–	–	–	7.54	8.60	7.74	8.58	O=C1c2c(C3CCCC3)c3ncccc3n2CCN1C1CC1 [Example 86, 10-Cyclopentyl-8-cyclopropyl-7,8-dihydropyrido[2′,3′:4,5]pyrrolo[1,2-a]pyrazin-9(6H)-one]
